Results published in patent US20100197610A1, “FRUCTOSE 1, 6 BISPHOSPHATE - A NOVEL ANTICONVULSANT DRUG” (Baylor College of Medicine, priority 2007, published 2010).

What was measured:
[1] = FDP levels in blood, brain and peripheral tissues after intraperitoneal administration; assay type: in vivo, Sprague-Dawley rats
Protocol: Adult male Sprague-Dawley rats (170-220 g) were used to determine the kinetics of fructose-1,6-diphosphate (FDP). Levels of FDP were determined in blood and tissue samples as previously described (Gerhard, Methods of Enzymatic Analysis, Vol VI, Ed. Bergmeyer, H U, Academic Press NY, pp. 342-350). All chemicals and enzymes for the assay were obtained from Sigma Chemical Co (St. Louis Mo.). Animals were administered a single dose of 0.5 g kg-1 FDP (250 mg ml-1 dissolved in 0.1M phosphate buffered saline, pH 7). In vivo studies utilized the dicalcium salt of FDP, which has a purity of ˜70%. […] At the designated time, animals were anesthetized with 1 g kg-1 urethane. After deep anesthesia, whole blood was obtained from a cardiac puncture. One ml of whole blood was added to 5 ml of perchloric acid ([…]) and mixed. After centrifugation at 3,500 rev min-1 for 10 min at 4° C., the supernatant was removed and set aside. The sediment was re-suspended in 1 ml of the perchloric acid solution and 1 ml of distilled water and centrifuged. The resulting supernatant was combined with the first one and the pH was adjusted to 3.5 with potassium carbonate (5 mol l-1). The final volume was brought to 7 ml and the solution was allowed to sit in ice for 15 min. The supernatant was used for determination of FDP levels.
Immediately after removal of the whole blood sample, the rat was perfused through the heart with ice-cold 0.01M phosphate buffered saline. Tissue samples from liver, kidney, skeletal muscle (from thigh) and intra-abdominal fat were obtained and then the brain was removed and dissected into hippocampus, cerebral cortex, cerebellum and rest of brain. […] All tissue samples were weighed and then homogenized in 5 ml of ice-cold perchloric acid (0.6 mol l-1) as quickly as possible. The homogenates were then treated was described above for whole blood.
Actual levels of FDP were determined by monitoring absorbance of reduced nicotinamide adenine dinucleotide (NADH) and treating the sample with aldolase (EC 4.1.2.13, 45 units mg-1 diluted 1:27 with distilled water), the enzyme which cleaves FDP into dihydroxyacetone phosphate (DAP) and D-glyceraldehyde 3-phosphate (GAP). DAP and GAP are interconverted by the enzyme triosephosphate isomerase (TIM, EC 5.3.3.1, 5290 units mg-1 diluted 1:120 with distilled water). Glycerol-3-phosphate dehydrogenase (GDH, EC 1.1.1.8, 252 units mg-1 diluted 1:100 with distilled water) catalyzes the reduction of DAP by NADH. For the FDP measurements, 1.5 ml of tetraethyl ammonium buffer (TEA, 0.4 mol l-1, pH 7.6 with EDTA 40 mmol l-1) was added to 1 ml of the sample in a 4 ml cuvette. Then 0.1 ml of 5 mmol l-1 β-NADH, 0.4 ml of distilled water and 0.01 ml of the enzymes TIM and GDH were added and the cuvette inverted to mix the solutions. After 5 min the absorbance was read 3 times at 340 nm, each reading 3 min apart. The average of these readings is the initial absorbance (Ai). This step removes any DAP or GAP in the sample and determines the baseline absorbance. Aldolase (0.01 ml) was then added and mixed to cleave FDP into DAP and GAP. Nine minutes after addition of the aldolase, the final absorbance (Af) was determined by 3 readings at 340 nm, each 6 minutes apart. The concentration of FDP in the sample was proportional to the difference in the initial and final absorbance. Two moles of NADH are oxidized for each mole of FDP. Blanks and a FDP standard sample were run in parallel with every assay. Each blank had 1.6 ml of the TEA buffer, 1.4 ml water and the mixture of TIM and GDH. For the positive control, the sample was replaced with 1 ml of a solution containing 200 μg FDP per ml of phosphate buffered saline. The trisodium salt of FDP, with a purity of >98%, was utilized for all of the positive control samples and for the standard curves. Levels of FDP in blood were determined per ml, while levels in tissue samples were determined as a function of tissue weight. […]

[2] = intravenous, rats (Nunes et al., 2003); cited from earlier work

O=C(COP(=O)(O)O)[C@@H](O)[C@H](O)[C@H](O)COP(=O)(O)O [F1,6BP, Fructose-1,6-bisphosphate]
FDP level in the brain at 12 hours vs levels at 1 and 2 hours ([1]; 0.5 g kg-1 ip): not significantly different | time of peak FDP levels in blood ([1]; 0.5 g kg-1 ip): 2 h | time of peak FDP levels in the brain ([1]; 0.5 g kg-1 ip): 1 to 2 h | FDP levels in blood vs control ([1]; 0.5 g kg-1 ip, 1 hour): significant increase | FDP level in blood compared to control values ([1]; 0.5 g kg-1 ip, 12 hours): significantly elevated | FDP level in blood compared to the peak levels at 2 hours ([1]; 0.5 g kg-1 ip, 12 hours): significantly decreased | FDP levels in liver, kidney, muscle and fat ([1]; 0.5 g kg-1 ip, 12 hours): returned to near baseline | FDP levels in the brain vs control ([1]; 0.5 g kg-1 ip, 36 hours): remained significantly elevated | FDP levels in blood ([1]; 0.5 g kg-1 ip, by 6 hours): fallen more than halfway back to baseline | increase in FDP at 1 hour, all tissues measured ([1]; 0.5 g kg-1 ip, liver, kidney, skeletal muscle and fat, n=6): around 0.2 mg g-1 | increase in FDP at 1 hour, kidney ([1]; 0.5 g kg-1 ip, n=6): 0.26 mg/g | increase in FDP at 1 hour, liver ([1]; 0.5 g kg-1 ip, n=6): 0.17 mg/g | increase in FDP at 1 hour, muscle ([1]; 0.5 g kg-1 ip, n=6): 0.17 mg/g | time at which an increase of FDP levels in blood was first seen ([1]; single dose 0.5 g kg-1 ip): 30 min | time out to which FDP levels in blood remained elevated ([1]; single dose 0.5 g kg-1 ip): 72 h | LD50 [2]: 1,068 mg/kg
